From patent US10028992B2, “Methods of treating muscular dystrophy” (BOARD OF REGENTS OF THE NEVADA SYSTEM OF HIGHER EDUCATION …, priority 2012, dated 2018)
Read-outs that look alike come from different tables or passages of the source.

System: α7 integrin promoter
Assay: muscle cell-based assay: α7βgal+/− myoblasts/myotubes, LacZ reporter, β-galactosidase cleavage of FDG
Parameters: species or system mouse; Results in α7+/− β-galactosidase assay: scale not given here
Conditions: for AC50 / Emax / EC50: Mus musculus; for AC50: log of AC50, given with negative sign, unit of AC50 not given, read-out: Fit Log AC50 (converted); for Emax: read-out: Max Response [%]; for Results in α7+/− β-galactosidase assay: Myoblasts
Description: An α7 integrin null mouse was produced in which exon 1 of the gene encoding the α7 integrin was replaced by the LacZ reporter. In these mice, all the transcriptional regulatory elements of the α7 integrin promoter were retained, allowing β-galactosidase to report expression of 7 integrin. A primary myoblast cell line (designated α7βgal^+/−) isolated from 10 day old α7^+/− pups were analyzed for the ability of β-galactosidase to report α7 integrin expression. α7βgal^+/− myoblasts were differentiated and subjected to X-gal staining and western analysis (FIGS. 1A and 1B).
The activity of the α7 integrin promoter was measured by β-galactosidase cleavage of the non-fluorescent compound fluorescein di-β-D-galactopyranoside (FDG) to fluorescein. This assay was used to screen compound libraries to identify molecules that up-regulate α7 integrin expression in muscle.
Also evaluated was the effect of various isoforms of laminin and the ligand for α7β1 integrin on integrin expression. Positive hits were subjected to dose-response analysis, western analysis and a myostatin counterscreen (a negative regulator of muscle growth).

[1] = Table 12, fitted activity at zero concentration
[2] = Table 12 Compound data, concentration-response curve fit
[3] = given as log AC50 (negative values), read-out: Fit LogAC50 (converted)
[4] = curve class number, key not given
[5] = curve fit, activity at zero concentration

SMILES | Results in a α7+/− β-galactosidase assay, Myotubes, 0.5 uM (Myotubes, compound at 0.5 uM) | Results in a α7+/− β-galactosidase assay, Myotubes, 1 uM (Myotubes, compound at 1 uM) | Results in a α7+/− β-galactosidase assay, Myotubes, 5 uM (Myotubes, compound at 5 uM) | Results in a α7+/− β-galactosidase assay, Myotubes, 10 uM (Myotubes, compound at 10 uM) | Results in a α7+/− β-galactosidase assay, Myotubes, 20 uM (Myotubes, compound at 20 uM) | Results in a α7+/− β-galactosidase assay, Myotubes, 40 uM (Myotubes, compound at 40 uM) | Results in α7+/− β-galactosidase assay (0.5 uM) | Results in α7+/− β-galactosidase assay (1 uM) | Results in α7+/− β-galactosidase assay (5 uM) | Results in α7+/− β-galactosidase assay (10 uM) | Results in α7+/− β-galactosidase assay (20 uM) | Results in α7+/− β-galactosidase assay (40 uM) | other results
COc1ccccc1C(=O)OCc1ccc2sc(C)nc2c1 [drawing 378] | −0.04468 | 0.06534 | 0.05342 | −0.1134 | −0.02544 | −0.1114 |  |  |  |  |  |  | 
CCOC(=O)C1(Cc2cccc(Cl)c2)CCCN(C(=O)CCSC)C1 (stereo not shown) [drawing 396] | −0.05788 | 0.02732 | −0.3174 | −0.211 | −0.1814 | −0.4242 |  |  |  |  |  |  | 
CC(OC(=O)c1cc(-c2cccnc2)nc2ccccc12)C(=O)Nc1ccc2ccccc2c1 (stereo not shown) [Compound 1] |  |  |  |  |  |  |  |  |  |  |  |  | Activity at 0.307 μM [%] **: 0%; AC50 (Table 12): 1.12 µM; Emax: 191%; Fit HillSlope (Table 12, curve fit): 3.132; Fit Zero Activity [%] [1]: −2.9752%; Fit Curve Class (Table 12, key not given): 1.1; Score [2]: 94
O=C1Nc2ccccc2/C1=C/c1ccccc1Cl [drawing 321] | 0.1248 | 0.1803 | −0.0494 | −0.1957 | −0.4748 | −0.6409 |  |  |  |  |  |  | 
CCOn1c(=O)c(-c2ccccc2)[n+]([O-])c2ccccc21 [drawing 540] |  |  |  |  |  |  | 0.2811 | 0.2862 | 0.8432 | −0.07816 | 0.1113 | 0.0836 | 
C=CCOc1ccc(C(=O)/C=C2\C(=O)Nc3ccccc32)cc1 [drawing 353] | −0.02111 | −0.0826 | −0.09703 | 0.05145 | −0.2835 | −0.2827 |  |  |  |  |  |  | 
CCCC(=O)OCC(=O)c1[nH]c(C)c(C(C)=O)c1C [drawing 496] | −0.1192 | −0.0136 | −0.3312 | −0.02935 | −0.1657 | −0.01124 |  |  |  |  |  |  | 
CCCCN(CC)Cc1ccc(C/N=C(\S)Nc2ccccc2F)o1 [drawing 521] |  |  |  |  |  |  | 0.07412 | 0.014 | 0.01263 | 0.224 | −0.04634 | −0.1183 | 
O=CN1CCN(C(=O)CC(c2ccccc2)c2cc(Br)ccc2O)CC1 (stereo not shown) [drawing 487] | −0.0643 | −0.1354 | 0.1295 | −0.2355 | −0.0629 | −0.1726 |  |  |  |  |  |  | 
CN(CCC1CCCCO1)C(=O)CCc1nnc(CCCCc2ccccc2)o1 (stereo not shown) [drawing 407] | 0.03419 | 0.03033 | −0.2337 | −0.1125 | −0.1283 | −0.1202 |  |  |  |  |  |  | 
O=S(=O)(c1ccccc1)N1CCCC(c2nc(O)c3nnn(Cc4cccc(Cl)c4)c3n2)C1 (stereo not shown) [Compound 161] |  |  |  |  |  |  |  |  |  |  |  |  | EC50 [3]: 3.98 µM; Score (Table 12 compound data): 42; Fit Curve Class [4]: 2.1; Fit HillSlope (curve fit): 1.1; Fit Zero Activity [%] [5]: −42.9418%
CCC(=O)c1ccccc1OCCCN1CCCCC1.Cl [Compound ID# 1003, 1 {2-[3-(1-piperidinyl)propoxy}phenyl}-1-propanone hydrochloride] |  |  |  |  |  |  |  |  |  |  |  |  | EC50 (enhancement of α7 integrin expression in muscle cells, read-out: EC50): 5 µM; Optimal Concentration (enhancement of α7 integrin expression in muscle cells): 25 μm; α7 integrin expression in muscle (screen of DIVERSet library): increased
CCC(C)NC(=O)CSc1nnc(COc2ccc(Br)cc2)o1 (stereo not shown) [drawing 599] |  |  |  |  |  |  | 0.03703 | −0.07 | −0.1163 | 0.4886 | −0.0797 | −0.4672 | 
COc1cccc(NC(=O)c2ccc3c(c2)CCCC3)c1 [Compound 162] |  |  |  |  |  |  |  |  |  |  |  |  | EC50 [3]: 5.62 µM; Score (Table 12 compound data): 42; Fit Curve Class [4]: 2.1; Fit HillSlope (curve fit): 2.2526; Fit Zero Activity [%] [5]: −31.8121%
CC(C)(C)c1ccc(C(=O)OCC(=O)Nc2sc3c(c2C#N)CCC3)cc1 [drawing 678] |  |  |  |  |  |  | 0.2055 | 0.1005 | 0.3001 | −0.02658 | 0.3137 | 0.2257 | 
COCCSc1ccccc1C(=O)Nc1cc(C)cc(C)c1 [Compound 22] |  |  |  |  |  |  |  |  |  |  |  |  | Activity at 0.307 μM [%] **: 0%; Activity at 1.530 μM [%] ** (1.530 μM): 0%; AC50 (Table 12): 4.47 µM; Emax: 82.9%; Fit HillSlope (Table 12, curve fit): 4.9549; Fit Zero Activity [%] [1]: −0.2899%; Fit Curve Class (Table 12, key not given): 1.1; Score [2]: 84
O=C(COc1ccc(Cl)cc1)N1CCN(C2CCCC2)CC1.O=C(O)C(=O)O |  |  |  |  |  |  |  |  |  |  |  |  | Results in a α7+/− β-galactosidase assay, Myotubes, 0.5 uM: 0.1096; Results in a α7+/− β-galactosidase assay, Myotubes, 1 uM: 0.06035; Results in a α7+/− β-galactosidase assay, Myotubes, 5 uM: −0.07324; Results in a α7+/− β-galactosidase assay, Myotubes, 10 uM: −0.04013; Results in a α7+/− β-galactosidase assay, Myotubes, 20 uM: −0.1813; Results in a α7+/− β-galactosidase assay, Myotubes, 40 uM: −0.2711
O=C1Nc2ccccc2/C1=C/c1cccnc1 [drawing 535] |  |  |  |  |  |  | 0.259 | 0.1621 | −0.1077 | −0.235 | −0.5331 | −0.7528 | 
c1ccc(-c2nn[nH]n2)nc1 [drawing 616] |  |  |  |  |  |  | −0.1138 | −0.161 | 0.4758 | −0.06661 | 0.6134 | −0.02456 | 
CCn1c(=O)c2cc(C(=O)N(C)c3cc(C)ccc3OC)sc2c2ccccc21 [drawing 428] | −0.1274 | −0.01854 | −0.1965 | −0.1001 | −0.31 | −0.8047 |  |  |  |  |  |  | 
CCc1c(C)sc(NC(=O)c2ccco2)c1C#N [drawing 528] |  |  |  |  |  |  | 0.08233 | 0.08072 | 0.4585 | 0.07353 | 0.153 | 0.1981 | 
CCOC(=O)/C(C(=O)c1ccccc1)=C(\N)NCCO [Compound 222] |  |  |  |  |  |  |  |  |  |  |  |  | EC50 [3]: 12.6 µM; Score (Table 12 compound data): 41; Fit Curve Class [4]: 2.2; Fit HillSlope (curve fit): 4.095; Fit Zero Activity [%] [5]: 9.8519%
O=C(O)CCn1cc(/C=C2/NC(=S)N(c3ccccc3)C2=O)c(-c2ccccc2)n1 [Compound 65] |  |  |  |  |  |  |  |  |  |  |  |  | Curve Description: Partial; Fit Curve Class: 2.1; Fit HillSlope: 4.095; Fit Infinite Activity [%]: 501.215%; Fit Log AC50: −4.7; Fit Zero Activity [%]: 9.2299%; Score: 45
OC(c1nc2cc(F)ccc2[nH]1)C(O)c1nc2cc(F)ccc2[nH]1 (stereo not shown) [drawing 365] | 0.0667 | 0.1032 | 0.2081 | 0.01319 | −0.09026 | −0.08066 |  |  |  |  |  |  | 
COc1ccc(OC)c(NC(=O)CN2CCC(NC(=O)c3ccccc3C)CC2)c1 [drawing 574] |  |  |  |  |  |  | 0.0132 | 0.06975 | 0.04855 | −0.0931 | 0.06823 | 0.04785 | 
